What was measured:
B16–F10 cells = assay: RNaseq gene expression profiling; type: cell-based, mouse; conditions: 100 nM, 24 h;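 for logFC Cck: Hybrid compounds tested at 10 µM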;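 for logFC Cited1: Hybrid compounds tested at 10 µM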
Experimental: AC-340 superinduced CYP24A1 expression in all cell lines tested, and ZG-126 appeared to be a hyperagonist in SK-MEL-28 cells. […] AC-340 treatment produced 3 times more differentially expressed genes (DEGs) than AM-193, with ZG-126 producing an intermediate number (Figure A). […] The varying effects of each treatment on the numbers of regulated genes and the fold changes observed are reflected in plots of log-fold changes and volcano plots (Figure S3B).
A quality control was performed before sequencing in paired-end at 50 M reads by Illumina NovaSeq 6000 S4 PE100. After sequencing, the FASTQ files were sent to us and all downstream analysis were performed on Galaxy (Galaxy (usegalaxy.org)). First, trimmomatic tool was used to remove the adapters from the reads. Then, using the alignment tool, HISAT2, the reads were mapped to the mouse genome. In the next step, the counted reads were annotated and finally the list of differentially expressed genes (DEGs) for each treatment was obtained using the preinstalled R package called Limma.

[1] = biological target: T1, zebrafish vitamin D receptor ligand binding domain (zVDR LBD, 156-453) (zebrafish, UniProt Q9PTN2 156-453); assay: crystal structure; zVDR LBD (3-7 mg/mL) incubated with a 2-fold excess of ligand AC-340 and a 3-fold excess of the NCoA2 NR2 peptide; crystals at 293 K in Na2 tartrate 1.1 M, MgCl2 0.2 M, Hepes 0.1 M pH 7.5; one LBD complex per asymmetric unit; refined to 2.1 Å; conditions: both partners purified
T1 construct: Cloned into pET28b; the His tag was removed by thrombin, so residues of the vector may remain at the end; The crystal also holds the small molecule AC-340; also called zebrafish VDR; source: Escherichia coli BL21 DE3, purified (Ni Hitrap FF crude column, thrombin cleavage, size exclusion on HiLoad Superdex 75)
T1 sequence (looked up): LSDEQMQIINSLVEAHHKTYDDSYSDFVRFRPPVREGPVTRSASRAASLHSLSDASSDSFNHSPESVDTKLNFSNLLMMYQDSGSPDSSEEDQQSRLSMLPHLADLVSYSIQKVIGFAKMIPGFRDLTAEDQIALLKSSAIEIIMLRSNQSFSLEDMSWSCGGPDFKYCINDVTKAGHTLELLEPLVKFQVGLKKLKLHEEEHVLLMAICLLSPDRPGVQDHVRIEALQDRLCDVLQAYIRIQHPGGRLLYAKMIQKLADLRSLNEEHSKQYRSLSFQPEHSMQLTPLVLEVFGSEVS

O=C(CCCCCCC(=O)Nc1ccccc1)NO [SAHA, suberoylanilide hydroxamic acid]
logFC 1500009L16Rik (B16–F10 cells): 0.7062
logFC Abca13 (B16–F10 cells): 0.7574
logFC Adam19 (B16–F10 cells): 0.5841
logFC Adamts7 (B16–F10 cells): 1.124
logFC Adamts14 (B16–F10 cells): 1.217
logFC Ank3 (B16–F10 cells): 0.7456
logFC Apbb1 (B16–F10 cells): 0.8022
logFC Atcay (B16–F10 cells): 1.535
logFC Atp1b2 (B16–F10 cells): 0.7178
logFC Atp2b4 (B16–F10 cells): 0.9179
logFC Bcan (B16–F10 cells): 0.5824
logFC Btn1a1 (B16–F10 cells): 2.439
logFC C1qtnf1 (B16–F10 cells): 1.607
logFC C1s1 (B16–F10 cells): 0.9877
logFC Card10 (B16–F10 cells): 0.6233
logFC Cck (B16–F10 cells): -0.6184
logFC Ccl2 (B16–F10 cells): 0.7906
logFC Chn1 (B16–F10 cells): 0.6625
logFC Cited1 (B16–F10 cells): -0.5815
logFC Clcnka (B16–F10 cells): 1.628
logFC Clu (B16–F10 cells): 0.9236
logFC Col1a1 (B16–F10 cells): 1.702
logFC Cpm (B16–F10 cells): 0.8993
logFC Crip1 (B16–F10 cells): 0.7228
logFC Crmp1 (B16–F10 cells): 0.7266
logFC Csdc2 (B16–F10 cells): 1.013
logFC Dock10 (B16–F10 cells): 0.6896
logFC Egfl7 (B16–F10 cells): 0.5994
logFC Elovl4 (B16–F10 cells): 0.6542
logFC Enpp1 (B16–F10 cells): 0.7446
logFC Enpp3 (B16–F10 cells): 0.9035
logFC Entpd2 (B16–F10 cells): 0.9577
logFC Fam131b (B16–F10 cells): 1.153
logFC Fbxo41 (B16–F10 cells): 0.8175
logFC Fstl1 (B16–F10 cells): 1.348
logFC Gli1 (B16–F10 cells): 1.843
logFC Glipr2 (B16–F10 cells): 0.8149
logFC Gpr162 (B16–F10 cells): 0.6749
logFC Gsdmc (B16–F10 cells): 0.6713
logFC Gstt1 (B16–F10 cells): 1.731
logFC Hoxb9 (B16–F10 cells): 0.9565
logFC Itga8 (B16–F10 cells): 0.6392
logFC Jam2 (B16–F10 cells): 0.5927
logFC Kcnh2 (B16–F10 cells): 1.1509
logFC Kcnt1 (B16–F10 cells): 2.101
logFC Kdelr3 (B16–F10 cells): 0.5979
logFC Klrg2 (B16–F10 cells): 0.6093
logFC Loxl4 (B16–F10 cells): 0.8565
logFC Lrp11 (B16–F10 cells): 0.65
logFC Lrrc75b (B16–F10 cells): 1.006
logFC Ltbp4 (B16–F10 cells): 1.299
logFC Map2 (B16–F10 cells): 0.5974
logFC Mgat3 (B16–F10 cells): 0.5859
logFC Mmp11 (B16–F10 cells): 0.7246
logFC Mmp17 (B16–F10 cells): 1.252
logFC Mogat2 (B16–F10 cells): 0.5856
logFC Myl9 (B16–F10 cells): 0.6886
logFC Nacad (B16–F10 cells): 0.9826
logFC Ndrg4 (B16–F10 cells): 0.8254
logFC Neurl1a (B16–F10 cells): 0.5887
logFC Notch1 (B16–F10 cells): 0.8121
logFC Palld (B16–F10 cells): 0.5874
logFC Pcdh17 (B16–F10 cells): 0.6033
logFC Pdgfra (B16–F10 cells): 1.16
logFC Plat (B16–F10 cells): 0.5899
logFC Plppr2 (B16–F10 cells): 0.641
logFC Plppr3 (B16–F10 cells): 0.7184
logFC Pmm1 (B16–F10 cells): 0.5873
logFC Ppm1j (B16–F10 cells): 0.9349
logFC Prelp (B16–F10 cells): 0.6949
logFC Prnd (B16–F10 cells): 0.9638
logFC Prph (B16–F10 cells): 1.113
logFC Ptgs1 (B16–F10 cells): 0.7769
logFC Rab7b (B16–F10 cells): 1.164
logFC Rasa4 (B16–F10 cells): 1.171
logFC Rcn3 (B16–F10 cells): 0.5908
logFC Reep6 (B16–F10 cells): 0.6217
logFC Rflnb (B16–F10 cells): 0.6241
logFC Rhpn2 (B16–F10 cells): 0.7266
logFC Rtn2 (B16–F10 cells): 0.735
logFC Rtn4rl2 (B16–F10 cells): 1.53
logFC Rundc3a (B16–F10 cells): 0.8211
logFC S100a6 (B16–F10 cells): 0.8372
logFC Scube3 (B16–F10 cells): 0.7375
logFC Septin4 (B16–F10 cells): 0.8607
logFC Septin5 (B16–F10 cells): 1.1153
logFC Spn (B16–F10 cells): 1.292
logFC Sptbn2 (B16–F10 cells): -0.6313
logFC Stum (B16–F10 cells): 0.9146
logFC Syt3 (B16–F10 cells): 1.3692
logFC Syt7 (B16–F10 cells): 0.603
logFC Tagln2 (B16–F10 cells): 0.7428
logFC Tgm2 (B16–F10 cells): 1.1319
logFC Thbs3 (B16–F10 cells): 0.7215
logFC Tlr1 (B16–F10 cells): 0.6918
logFC Trim47 (B16–F10 cells): 0.6166
logFC Trnp1 (B16–F10 cells): 0.6142
logFC Uchl1 (B16–F10 cells): 0.7608
logFC Vash1 (B16–F10 cells): 0.6486
logFC Vdr (B16–F10 cells): 1.045
logFC Wfdc1 (B16–F10 cells): 0.7568
logFC Wnt6 (B16–F10 cells): 1.4553

KHKILHRLLQDSS (also called NCoA2 peptide) [coactivator NCoA2 NR2 peptide (human nuclear receptor coactivator 2, second NR box)]
binding result [1]: binds

— paper PMC12517324, “Hyperagonism of a Vitamin D Receptor Agonist/Histone Deacetylase Inhibitor Hybrid Molecule” (Journal of Medicinal Chemistry, 2025)
